The values below come from US20060160989A1, “Polypeptide useful as antiallergic/antiasthmatic activity, methods for the preparation thereof, pharmaceutical compositions containing such polypeptide and use thereof” (COUNCIL OF SCIENTIC AND INDUSTRIAL RESEARCH, priority 2002, published 2006).

Read-outs that look alike come from different tables or passages of the source.

In data set [1] the test system is passive cutaneous anaphylaxis (PCA). The data set can be described thus: Passive cutaneous anaphylaxis (PCA) test in rats. In kind it is in vivo. The settings on record: for % Anti-PCA activity: rats.
Another data set deals with Sensitised mast cells. The data set can be described thus: Mast cell degranulation by egg albumin in sensitised mast cells (immunological). It counts as in vivo, rats. The source says: (§1) Peptide 96/199 is related to the sequence of IgE Fc fragment.
Another data set deals with Normal mast cells. The data set can be described thus: Mast cell degranulation by comp 48/80 in normal mast cells (non-immunological). It counts as in vivo, rats.
From the text: as §1

The subject of data set [2] is sensitised guinea pig ileum. As to the kind of experiment: Antigen (egg albumin) induced contraction of sensitised guinea pig ileum (Schultz-Dale phenomenon). On the procedure: (§2) This activity of peptide 96/199 was comarable with disodium cromoglycate (50 mg/kg ip) which is a standard antiallergic drug effective by inhalation.
The subject of the next data set is normal guinea pigs. As to the kind of experiment: Aerosol test, histamine, guinea pigs. In kind it is in vivo.
The next data set concerns sensitised guinea pigs. As to the kind of experiment: Aerosol test, egg-albumin, sensitised guinea pigs. In kind it is in vivo. As to the method:
as §2

Data set [3] is described as follows: Other pharmacological studies (cardiovascular, CNS, anti-inflammatory, diuretic). It counts as in vivo. The source says:
Other Pharmacological Studies: Peptide 96-199 was further evaluated for its cardiovascular, Central Nervous System (CNS), anti-inflammatory, diuretic activities.

For another data set, the system named is leucine *amino-peptidase. The settings on record: enzymatic hydrolysis with leucine aminopeptidase, cited from earlier work.
[4] abbreviates: 50.0 pro (10.0 × 5 d) mg/kg × days.
Where [5] appears, read: 0.5 pro (0.1 × 5 d) mg/kg × days.
Where [6] appears, read: 1.0 pro (0.2 × 5 d) mg/kg × days.
Setting [7] is: 2.5 pro (0.5 × 5 d) mg/kg × days.
Setting [8] is: 5.0 pro (1.0 × 5 d) mg/kg × days.

In the case of `O=C([O-])c1cc(=O)c2c(OCC(O)COc3cccc4oc(C(=O)[O-])cc(=O)c34)cccc2o1.[Na+].[Na+]` [DSCG, disodium cromoglycate, reference compound], in data set [1] (50 mg/kg by nasal route), the “anti PCA activity” value is given as 81%. Besides, the “% Anti-PCA activity” value in data set [1] (50.0 mg/kg IP) came out at 77%. The “% Protection, sensitised mast cells (Immunological: Egg albumin)” value in the data set on Sensitised mast cells (setting [4]) was determined as 71%. The “% Protection, normal mast cells (Noninnunological: Comp. 48/80)” value in the data set with Normal mast cells (setting [4]) was determined as 72%. Moreover, the entries for the “% Protection to ileum contraction induced by egg albumin” value in data set [2] (concentration 1.0 (μg/mL)), in data set [2] (concentration 2.0 (μg/mL)) and in data set [2] (concentration 3.0 (μg/mL)) were “No block”, 18% and 59%, respectively. Further, the “% Protection, Histamine aerosol” value in the data set with normal guinea pigs (50 mg/kg ip) amounted to 17%. For the same molecule, the “% Protection, Egg-albumin aerosol” value with sensitised guinea pigs (50 mg/kg ip) was 64%.

On to “L-alanyl-glycyl-glycyl-L-aspartyl-sar-L-l ys [96/199]”, for which the “% Anti-PCA activity” value turned out to be 43% in data set [1] (0.5 mg/kg PO), 48% in data set [1] (1.0 mg/kg PO), 74% in data set [1] (2.5 mg/kg PO) and 82% in data set [1] (5.0 mg/kg PO). Further, the “% Protection, sensitised mast cells (Immunological: Egg albumin)” value in the data set on Sensitised mast cells (setting [5]) is listed as 34%; in the data set on Sensitised mast cells (setting [6]), 47%; in the data set with Sensitised mast cells (setting [7]), 66%; in the data set with Sensitised mast cells (setting [8]), 72%. Further, the “% Protection, normal mast cells (Noninnunological: Comp. 48/80)” value in the data set on Normal mast cells (setting [5]) is reported as 39%; in the data set with Normal mast cells (setting [6]) it was 55%; in the data set with Normal mast cells (setting [7]), 77%; in the data set on Normal mast cells (setting [8]), 84%. The “% Protection to ileum contraction induced by egg albumin” value in data set [2] (concentration 1.0 (μg/mL)) is recorded as 60%; in data set [2] (concentration 2.0 (μg/mL)) it was 78%; in data set [2] (concentration 3.0 (μg/mL)) it was 92%. Further, the “% Protection, Histamine aerosol” value is on record as “Nil” with normal guinea pigs (2.5 mg/kg po) and 10% in the data set with normal guinea pigs (5.0 mg/kg po). For the same molecule, the “% Protection, Egg-albumin aerosol” value with sensitised guinea pigs (2.5 mg/kg po) was 55%; with sensitised guinea pigs (5.0 mg/kg po), 61%. For the same molecule, the “any other pharmacological activity” value in data set [3] (in vivo) is recorded as “devoid of any other pharmacological activity”. Also, the “cardiovascular, Central Nervous System (CNS), anti-inflammatory, diuretic activities” value in data set [3] (up to a dose of 10 mg/kg) is “No significant effects”.

In the case of leucine enkephaline, the half life in the data set with leucine *amino-peptidase (with beta-Cyclodextrins) was 75 m; in the data set on leucine *amino-peptidase (without cyclodextrin) it was 44 min.
